Laboratory results taken from article PMC4096222 (Journal of Medicinal Chemistry, 2014).

Key:
A/M2 S31N = A/M2 S31N (Influenza A virus, UniProt P0DOF5, S31N); assay type: cell-based, influenza A/Udorn/72; settings: for A/M2 S31N inhibition by 100 μM for 2 min (mean ± SE): pH 5.5
A/PR/8/34 (A/H1N1) = assay type: cell-based, influenza A virus
A/M2 V27A = A/M2 V27A (Influenza A virus, UniProt P0DOF5, V27A); assay type: cell-based, influenza A/Udorn/72

Question: Which “A/M2 S31N inhibition by 100 μM for 2 min (mean ± SE)” value (A/M2 S31N) does the source give for `C1=CC2C3CNCC3C1C1CC21.Cl` (stereo not shown) [compound 4, 4-Azatetracyclo[5.3.2.0^2,6.0^8.10]dodec-11-ene Hydrochloride] here?
Answer: 0%

Question: How did the “A/M2 S31N inhibition by 100 μM for 2 min (mean ± SE)” value (A/M2 S31N) turn out when `Cl.N=C(N)N1CC2C3C=CC(C4CC34)C2C1` (stereo not shown) [compound 5, 4-Amidino-4-azatetracyclo[5.3.2.0^2,6.0^8.10]dodec-11-ene Hydrochloride] was run?
Answer: 0%

Question: For `C1=CC2C3CC3C1C1CN(C3CCNCC3)CC21.Cl` (stereo not shown) [compound 8, 4-(4-Piperidinyl)-4-azatetracyclo[5.3.2.0^2,6.0^8.10]dodec-11-ene Dihydrochloride], which “activity against A/PR/8/34 strain” value (A/PR/8/34 (A/H1N1)) is on record?
Answer: strong activity

Question: `C1=CC2C1C1C=CC2C2CNCC12.Cl` (stereo not shown) [compound 11, 4-Azatetracyclo[5.4.2.0^2,6.0^8.11]trideca-9,12-diene Hydrochloride] was tested. Which “activity against A/PR/8/34 strain” value (A/PR/8/34 (A/H1N1)) did it give?
Answer: strong activity

Question: How did the “activity against V27A M2 mutant channel” value (A/M2 V27A) turn out when `Cl.N=C(N)N1CC2C3CCC(C4CCC43)C2C1` (stereo not shown) [compound 14, 4-Amidino-4-azatetracyclo[5.4.2.0^2,6.0^8.11]tridecane Hydrochloride] was run?
Answer: fair activity

Question: How did the “activity against A/PR/8/34 strain” value (A/PR/8/34 (A/H1N1)) turn out when `CC12CC34CNCC35CC1(C)C(C)(C5)C2(C)C4.Cl` (stereo not shown) [compound 18, 7,8,9,10-Tetramethyl-3-azapentacyclo[7.2.1.1^5,8.0^1,5.0^7,10]tridecane Hydrochloride] was run?
Answer: strong activity

Question: What about the “inhibition of S31N mutant ion channel” value (A/M2 S31N) of the same compound?
Answer: lack of inhibitory potency
